Source: the CombiSolv-Exp solvation set (Vermeire and Green 2021)

Assay: solvent given as SMILES

O=CN1CCOCC1
Settings | solvation free energy, 298 K [kcal/mol]
in O | -9.41

CCCCCC=CC=O
Settings | solvation free energy, 298 K [kcal/mol]
in O | -3.43

C=C1CCC2C1C1C(C(C)C)CCC21C (configuration not stated)
Settings | solvation free energy, 298 K [kcal/mol]
in O | 1.19

CCCCCCCCCCOC(=O)c1ccccc1C(=O)OCCCCCCCCCC
Settings | solvation free energy, 298 K [kcal/mol]
in O | -6.22

CC1CCC(C)O1 (configuration not stated)
Settings | solvation free energy, 298 K [kcal/mol]
in O | -2.92

CC1CCCCC1
Settings | solvation free energy, 298 K [kcal/mol]
in C1CCOC1 | -4.67
in C1COCCO1 | -4.09
in CC1CCS(=O)(=O)C1 | -3
in CC#N | -3.28
in CC(=O)N(C)C | -3.68
in CC(C)=O | -3.93
in CC(C)CCCC(C)CCCC(C)CCCCC(C)CCCC(C)CCCC(C)C | -4.3
in CC(C)O | -3.79
in CCC#N | -4.07
in CCC(C)=O | -4.12
in CCCC#N | -3.63
in CCCCC(CC)COC(=O)c1ccccc1C(=O)OCC(CC)CCCC | -3.99
in CCCCCCC | -4.79
in CCCCCCCCC=CCCCCCCCC(=O)OCC(COC(=O)CCCCCCCC=CCCCCCCCC)OC(=O)CCCCCCCC=CCCCCCCCC | -4.26
in CCCCCCCCCC | -4.57
in CCCCCCCO | -4.16
in CCCCN(C=O)CCCC | -4.05
in CCCCOC(=O)c1ccccc1C(=O)OCCCC | -4.11
in CCOC(=O)c1ccccc1C(=O)OCC | -3.59
in CN1CCCC1=O | -3.59
in CN1CCCCC1=O | -3.72
in CN(C)C=O | -3.52
in CNC(C)=O | -3.59
in CNC=O | -3.18
in COC(C)(C)C | -4.8
in COCCO | -3.47
in CS(C)=O | -2.73
in NC=O | -1.42
in Nc1ccccc1 | -3.29
in O | 1.7
in O=C1CCCO1 | -3
in O=CN1CCOCC1 | -2.94
in OCCCCCO | -2.87
in OCCCCO | -2.77
in OCCCO | -2.39
in OCCO | -1.58
in OCCOCCO | -2.38
in OCCOCCOCCO | -2.44
in OCCOCCOCCOCCO | -2.55
in OCCS | -2.82

CCC(C)CCC(C)C (configuration not stated)
Settings | solvation free energy, 298 K [kcal/mol]
in CCCO | -4.64

O=C(O)C=CC(=O)O
Settings | solvation free energy, 298 K [kcal/mol]
in CC(C)=O | -10.2
in CC(C)O | -10.8
in CCCO | -10.6
in CCO | -10.8
in O | -9.96
in O=C1CCCCC1 | -9.9

BrC(Br)Br
Settings | solvation free energy, 298 K [kcal/mol]
in O | -1.96

BrC1CCCCC1
Settings | solvation free energy, 298 K [kcal/mol]
in O | -0.57

NC(N)=S
Settings | solvation free energy, 298 K [kcal/mol]
in CCCCCCO | -9.57
in CCCCCO | -9.72
in CCCCO | -9.97
in CCCO | -10.2
in CCO | -10.6

CCC(C)(C)C
Settings | solvation free energy, 298 K [kcal/mol]
in C=CCCCCCCCCCCCCCC | -3.12
in CC#N | -2.32
in CC(C)CCCC(C)CCCC(C)CCCCC(C)CCCC(C)CCCC(C)C | -3
in CC(C)O | -2.73
in CCC(C)(C)OC | -3.49
in CCCCCC | -3.63
in CCCCCCCCCC | -3.38
in CCCCCCCCCCCCCCCC | -3.18
in CCCCCCCCCOC(=O)c1ccccc1C(=O)OCCCCCCCCC | -2.76
in CCCCCO | -2.93
in CCCCO | -2.89
in CN1CCCC1=O | -2.13
in CN(C)C=O | -2.33
in O | 2.51

O
Settings | solvation free energy, 298 K [kcal/mol]
in BrC(Br)Br | -1.76
in BrC(Br)C(Br)Br | -1.63
in BrCCBr | -1.98
in C1CCCCC1 | -0.54
in C1COCCO1 | -4.37
in C=CCCCCCCC=C | -1.19
in C=CCCCCCCCCCCCCCC | -0.63
in CC(C)=O | -4.34
in CC(C)C | -0.64
in CC(C)C(C)C | -0.56
in CC(C)C(C)C(C)C | -0.49
in CC(C)CC(C)(C)C | -0.52
in CC(C)CC(C)C | -0.51
in CC(C)CCC(C)(C)C | -0.49
in CCC | -0.66
in CCC(C)(C)C | -0.51
in CCC(C)=O | -4.02
in CCC(C)C | -0.56
in CCC(C)CC | -0.59
in CCCC(C)C | -0.55
in CCCC(C)CC | -0.47
in CCCCC | -0.64
in CCCCC(=O)CC | -3.3
in CCCCCC | -0.67
in CCCCCCC | -0.72
in CCCCCCCC | -0.73
in CCCCCCCCC | -0.53
in CCCCCCCCCC | -0.48
in CCCCCCCCCCC | -0.47
in CCCCCCCCCCCC | -0.44
in CCCCCCCCCCCCC | -0.4
in CCCCCCCCCCCCCCCC | -0.42
in CCCCCCCCCCO | -3.98
in CCCCCCCCO | -4.15
in CCCCO | -4.5
in CCCCOCCO | -4.6
in CCCO | -4.76
in CCCOCC(C)O | -4.29
in CCO | -5.05
in CN(C)C=O | -5.55
in CNC(C)=O | -5.8
in CNC=O | -5.28
in CO | -5.59
in ClC(Cl)(Cl)Cl | -1.15
in ClC(Cl)=C(Cl)Cl | -1.15
in NC=O | -5.67
in S=C=S | -1.01

CC1=CCCC(C)=CCC(C)(C)C=CC1
Settings | solvation free energy, 298 K [kcal/mol]
in O | 0.05

CCCCC(=O)OCCC(C)CCC=C(C)C (configuration not stated)
Settings | solvation free energy, 298 K [kcal/mol]
in O | -2.51

CCCCN(CC)N=O
Settings | solvation free energy, 298 K [kcal/mol]
in CC(C)CC(C)(C)C | -6.49
in O | -5.25

CCCCCCCCCCCCCCCCCCCCCCCCCCC
Settings | solvation free energy, 298 K [kcal/mol]
in CC(=O)N(C)C | -18.4
in CN(C)C=O | -18.5
in O | 5.74

Cc1cccc(C(=O)O)c1
Settings | solvation free energy, 298 K [kcal/mol]
in C1CCOC1 | -10.5
in C1COCCO1 | -10.1
in CC(C)(C)O | -10.2
in CC(C)CC(C)O | -10
in CC(C)CCO | -9.93
in CC(C)CO | -9.91
in CC(C)O | -10.1
in CC(C)OCCO | -10.1
in CC(O)COC(C)(C)C | -9.97
in CCC(C)CO | -9.88
in CCC(C)O | -10.1
in CCCC(C)CO | -9.89
in CCCC(C)O | -10
in CCCCCCCCCCO | -9.65
in CCCCCCCCO | -9.87
in CCCCCCCO | -9.91
in CCCCCCO | -9.94
in CCCCCO | -9.99
in CCCCO | -10
in CCCCOC(C)=O | -9.69
in CCCCOCCO | -10
in CCCO | -10.3
in CCCOCCO | -10.1
in CCO | -10.2
in CCOC(C)=O | -9.9
in CCOCC | -10
in CCOCCO | -10.1
in CO | -10.3
in COC(C)=O | -9.99
in COC(C)CCO | -10.1
in O | -6.79

CC(C)CCC(C)(C)C
Settings | solvation free energy, 298 K [kcal/mol]
in O | 2.94

c1cc2ccc3ccc4ccc5cccc6c(c1)c2c3c4c56
Settings | solvation free energy, 298 K [kcal/mol]
in O | -8.98
in O=C1CCCCC1 | -19.4

CCCC(=O)CC(C)=O
Settings | solvation free energy, 298 K [kcal/mol]
in O | -4.39
